Reference: patent publication US9426996B2, “Use of benzoxaboroles as volatile antimicrobial agents on meats, plants, or plant parts” (AgroFresh Inc., priority 2013, dated 2016)

Experiments:
Botrytis cinerea [1] = experiment: in vivo volatile bioassay using green table grape
Description: In order to assess the in vivo activity of volatile antimicrobial compounds, a volatile bioassay is developed using green table grape. Fruit are placed individually inside a 20 mL scintillation vial, with the stem wound facing upwards. The fresh stem wound is inoculated with 10 μL of 1×10^6 per mL Botrytis cinerea spore suspension. Whatman filter paper (Cat. No. 1822-024) is placed inside duplicate vial caps. […] The acetone is permitted to evaporate for 5 minutes. The vials are then capped with the lids containing the fungicide, and placed for 14 days at 4° C. After storage, fruit are evaluated for incidence of disease and appearance of phytotoxicity.

[2] = test system: Pectobacterium carotovorum; experiment: in vitro volatile assay, minimum bactericidal concentration (Example 11); type: cell-based; conditions: headspace concentration; 23° C. for 48 hours
Description: (§1) 12-Well (6.5 mL volume per well) microtiter plates are used for the in vitro inhibition assay for volatile antimicrobial Compound A (FIG. 1) against numerous bacterial pathogens. A 3-mL volume of Nutrient agar is added to each well and allowed to dry before introducing the pathogen. Escherichia coli, Pectobacterium carotovorum, Xanthomonas axonopodis and Salmonella enterica cell suspensions are adjusted to an optical density of 0.2 to 0.35, and further diluted 1/10, and 15 μL is pipetted to the center of each well and tilted to distribute uniformly. A Whatman #1 filter paper (CAT 1001-0155) is placed on the underside of a polyethylene PCR plate sealing film. […] The films with the treated disks are then applied over the inoculated plates and sealed. Plates are inverted, and incubated at 23° C. for 48 hours. After the incubation period, the bacteria colonies are dislodged in sterile water containing tween 80 (0.001%) and the optical density (OD; 600 nm) is determined Results are summarized in Table 10, where the headspace concentration required to control at least 80% of bacterial growth is reported.

Xanthomonas axonopodis = experiment: as above; type: cell-based; conditions: headspace concentration; 23° C. for 48 hours
Description: as §1

Botrytis cinerea [3] = experiment: white carnations with natural inoculum, fog or passive volatile treatment; type: in vivo; conditions: 8 days of shelf-life
Description: A similar test like the one described above is also performed on white carnations (treated with or without the commercial anti-ethylene compound silver thiosulfate; STS) with natural inoculum. Compound A is either dissolved in an aqueous 1,2-propylene glycol solution (3:1) and 5 mL of the solution volatilized using an ES-100-H SmartFog system (Reno, Nev.) through a ½″ side port that is sealed immediately after the application, or dissolved in acetone and applied to a 42.5 millimeter (mm) Whatman #1 filter disk (Cat. No. 1001-042), and placed on a watch glass after allowing the acetone to evaporate for 5 minutes. The flowers are incubated for 3 days at 21° C. After storage, the flowers are evaluated for an additional 8 days for disease severity based on the number of lesions present on flower petals and sepals.

Penicillium digitatum [4] = experiment: in vivo volatile bioassay using orange fruit (Compound A); conditions: oranges
Description: In order to assess the in vivo activity of volatile antimicrobial Compound A in fruit, a volatile bioassay is developed using orange fruit. Two oranges are placed inside a PET clamshell. Three fresh wounds per orange are inoculated with 30 μL of 1×10^6 per mL Penicillium digitatum spore suspension. The clamshells are placed inside a 10.8-cup SnapWare airtight container (Model #109842). A 42.5 mm Whatman #1 filter disk (Cat. No. 1001-042) is placed on a watch glass. Compound A is dissolved in acetone and added to the disks in a dose dependent manner to produce a final headspace concentration of 2, 10, or 50 mg/L. The acetone is permitted to evaporate for five minutes. The containers are then closed with the lids and placed for three days at 21° C. After storage, fruits are evaluated for disease incidence (mm diameter of the rot) and pathogen sporulation (mm diameter) on the surface of the fruits for an additional two days at 21° C., with results summarized in Table 18.

Penicillium digitatum [5] = experiment: in vitro contact fungicide assay (amended PDA); type: cell-based; conditions: three days at 23° C.
Description: (§2) In order to assess the activity of Compound A as a contact fungicide, an in vitro assay is developed. A 6 cm-diameter Petri plate is used. Compound A is amended into full-strength Potato Dextrose Agar (PDA) to achieve a final solution concentration of 10, 2, 0.4, or 0.08 mg/L, and 15-mL volume of solution is added to each plate. After cooling, 1 μL of 1×10^5 per mL Penicillium expansum or Penicillium digitatum spore suspension is spot-pipetted into the center of the agar.
(§3) Plates are sealed with a parafilm and placed in an incubator held at 23° C. After three days of storage, the cultures are evaluated for percent growth relative to control based on measurement of fungal colony diameter.

Penicillium expansum = experiment: in vitro contact fungicide assay (amended PDA); type: cell-based; conditions: three days at 23° C.
Description: as §2, §3

OB1OCc2cc(F)ccc21 [Compound A]
Botrytis inhibition % (in vivo) (Botrytis cinerea [1]; 0.005 mg per disk, 14 days at 4° C.): 0% | Botrytis inhibition % (in vivo) (Botrytis cinerea [1]; 0.01 mg per disk, 14 days at 4° C.): 0% | Botrytis inhibition % (in vivo) (Botrytis cinerea [1]; 0.023 mg per disk, 14 days at 4° C.): 0% | Botrytis inhibition % (in vivo) (Botrytis cinerea [1]; 0.04 mg per disk, 14 days at 4° C.): 100% | Botrytis inhibition % (in vivo) (Botrytis cinerea [1]; 0.08 mg per disk, 14 days at 4° C.): 100% | Botrytis inhibition % (in vivo) (Botrytis cinerea [1]; 0.16 mg per disk, 14 days at 4° C.): 100% | Botrytis inhibition % (in vivo) (Botrytis cinerea [1]; 0.31 mg per disk, 14 days at 4° C.): 100% | Botrytis inhibition % (in vivo) (Botrytis cinerea [1]; 0.63 mg per disk, 14 days at 4° C.): 100% | Botrytis inhibition % (in vivo) (Botrytis cinerea [1]; 1.25 mg per disk, 14 days at 4° C.): 100% | lowest rate with 100% control of Botrytis cinerea (Botrytis cinerea [1]; 14 days at 4° C.): 0.04 mg/disk | appearance of phytotoxicity (Botrytis cinerea [1]; any of the rates evaluated (2.5 to 0.0024 mg/disk)): no evidence of phytotoxicity | Rate (mg/L) offering at least 80% control, P. carotovorum [2]: 2.2 mg/L | Rate (mg/L) offering at least 80% control, X. axonopodis (Xanthomonas axonopodis): 4.5 mg/L | Severity (Average Number of Lesions) (Botrytis cinerea [3]; Petals, 0.04 mg/L, Non-STS, Fog): 0.4 | Severity (Average Number of Lesions) (Botrytis cinerea [3]; Petals, 0.04 mg/L, Non-STS, Volatile): 3.1 | Severity (Average Number of Lesions) (Botrytis cinerea [3]; Petals, 0.04 mg/L, STS, Fog): 0.3 | Severity (Average Number of Lesions) (Botrytis cinerea [3]; Petals, 0.04 mg/L, STS, Volatile): 0.5 | Severity (Average Number of Lesions) (Botrytis cinerea [3]; Petals, 0.2 mg/L, Non-STS, Fog): 0 | Severity (Average Number of Lesions) (Botrytis cinerea [3]; Petals, 0.2 mg/L, Non-STS, Volatile): 1.8 | Severity (Average Number of Lesions) (Botrytis cinerea [3]; Petals, 0.2 mg/L, STS, Fog): 0 | Severity (Average Number of Lesions) (Botrytis cinerea [3]; Petals, 0.2 mg/L, STS, Volatile): 0.1 | Severity (Average Number of Lesions) (Botrytis cinerea [3]; Petals, 1 mg/L, Non-STS, Fog): 0 | Severity (Average Number of Lesions) (Botrytis cinerea [3]; Petals, 1 mg/L, Non-STS, Volatile): 1.5 | Severity (Average Number of Lesions) (Botrytis cinerea [3]; Petals, 1 mg/L, STS, Fog): 0 | Severity (Average Number of Lesions) (Botrytis cinerea [3]; Petals, 1 mg/L, STS, Volatile): 0.1 | Severity (Average Number of Lesions) (Botrytis cinerea [3]; Sepals, 0.04 mg/L, Non-STS, Fog): 0.3 | Severity (Average Number of Lesions) (Botrytis cinerea [3]; Sepals, 0.04 mg/L, Non-STS, Volatile): 2.1 | Severity (Average Number of Lesions) (Botrytis cinerea [3]; Sepals, 0.04 mg/L, STS, Fog): 0.6 | Severity (Average Number of Lesions) (Botrytis cinerea [3]; Sepals, 0.04 mg/L, STS, Volatile): 1.1 | Severity (Average Number of Lesions) (Botrytis cinerea [3]; Sepals, 0.2 mg/L, Non-STS, Fog): 0.04 | Severity (Average Number of Lesions) (Botrytis cinerea [3]; Sepals, 0.2 mg/L, Non-STS, Volatile): 1.6 | Severity (Average Number of Lesions) (Botrytis cinerea [3]; Sepals, 0.2 mg/L, STS, Fog): 0.1 | Severity (Average Number of Lesions) (Botrytis cinerea [3]; Sepals, 0.2 mg/L, STS, Volatile): 0.3 | Severity (Average Number of Lesions) (Botrytis cinerea [3]; Sepals, 1 mg/L, Non-STS, Fog): 0.04 | Severity (Average Number of Lesions) (Botrytis cinerea [3]; Sepals, 1 mg/L, Non-STS, Volatile): 1 | Severity (Average Number of Lesions) (Botrytis cinerea [3]; Sepals, 1 mg/L, STS, Fog): 0.04 | Severity (Average Number of Lesions) (Botrytis cinerea [3]; Sepals, 1 mg/L, STS, Volatile): 0.2 | Sporulation (mm) (Penicillium digitatum [4]; 2 mg/L, Day 0): 0 mm | Water soaked lesions (mm) (Penicillium digitatum [4]; 2 mg/L, Day 0): 0 mm | Sporulation (mm) (Penicillium digitatum [4]; 2 mg/L, Day 1): 0.4 mm | Water soaked lesions (mm) (Penicillium digitatum [4]; 2 mg/L, Day 1): 0 mm | Sporulation (mm) (Penicillium digitatum [4]; 2 mg/L, Day 2): 2.7 mm | Water soaked lesions (mm) (Penicillium digitatum [4]; 2 mg/L, Day 2): 13.4 mm | Sporulation (mm) (Penicillium digitatum [4]; 10 mg/L, Day 0): 0.5 mm | Water soaked lesions (mm) (Penicillium digitatum [4]; 10 mg/L, Day 0): 0 mm | Sporulation (mm) (Penicillium digitatum [4]; 10 mg/L, Day 1): 0.4 mm | Water soaked lesions (mm) (Penicillium digitatum [4]; 10 mg/L, Day 1): 0 mm | Sporulation (mm) (Penicillium digitatum [4]; 10 mg/L, Day 2): 2.5 mm | Water soaked lesions (mm) (Penicillium digitatum [4]; 10 mg/L, Day 2): 9 mm | Sporulation (mm) (Penicillium digitatum [4]; 50 mg/L, Day 0): 0 mm | Water soaked lesions (mm) (Penicillium digitatum [4]; 50 mg/L, Day 0): 0 mm | Sporulation (mm) (Penicillium digitatum [4]; 50 mg/L, Day 1): 0 mm | Water soaked lesions (mm) (Penicillium digitatum [4]; 50 mg/L, Day 1): 0 mm | Sporulation (mm) (Penicillium digitatum [4]; 50 mg/L, Day 2): 1.2 mm | Water soaked lesions (mm) (Penicillium digitatum [4]; 50 mg/L, Day 2): 5 mm | Incidence (%) P. digitatum (Penicillium digitatum [5]; 0.08 mg/L): 42.0% | Incidence (%) P. digitatum (Penicillium digitatum [5]; 0.4 mg/L): 12.5% | Incidence (%) P. digitatum (Penicillium digitatum [5]; 2 mg/L): 0.0% | Incidence (%) P. digitatum (Penicillium digitatum [5]; 10 mg/L): 0.0% | Incidence (%) P. expansum (Penicillium expansum; 0.08 mg/L): 93.1% | Incidence (%) P. expansum (Penicillium expansum; 0.4 mg/L): 33.0% | Incidence (%) P. expansum (Penicillium expansum; 2 mg/L): 0.0% | Incidence (%) P. expansum (Penicillium expansum; 10 mg/L): 0.0%
